The subject of one experiment is Streptococcus pneumoniae. Nature of the experiment: Experimental bacterial infection in mice, ED50. In kind it is in vivo. As to conditions: two doses, administered subcutaneously.
In another experiment the test system is Staphylococcus aureus. Nature of the experiment: Experimental bacterial infection in mice, ED50. In kind it is in vivo. As to conditions: two doses, administered subcutaneously.
The next experiment has as its system Streptococcus pyogenes. Nature of the experiment: Experimental bacterial infection in mice, ED50. In kind it is in vivo. As to conditions: two doses, administered subcutaneously.
In the next experiment the test system is Escherichia coli TEM. As to conditions: agar dilution.
In experiment [1] the test system is Klebsiella pneumoniae KAE. As to conditions: agar dilution. (Agar dilution tests growth on a series of plates holding different concentrations.)
Experiment [2] relates to Staphylococcus aureus S13E. As to conditions: agar dilution.
For the next experiment, the system named is Escherichia coli N10. As to conditions: agar dilution.
The subject of experiment [3] is Streptococcus pneumoniae Park 1. As to conditions: agar dilution.
Experiment [4] has as its system Streptococcus faecium ATCC 9790. As to conditions: agar dilution.
Experiment [5] relates to Staphylococcus epidermidis EPI1. As to conditions: agar dilution.
Experiment [6] concerns Streptococcus sp. group D 2041. As to conditions: agar dilution.
In experiment [7] the test system is Klebsiella pneumoniae X26. As to conditions: agar dilution.
The next experiment deals with Escherichia coli EC14. As to conditions: agar dilution.
For experiment [8], the system named is Staphylococcus epidermidis 222. As to conditions: agar dilution.
The subject of experiment [9] is Haemophilus influenzae 76. As to conditions: agar dilution.
Experiment [10] concerns Klebsiella pneumoniae X68. As to conditions: agar dilution.
For experiment [11], the system named is Haemophilus influenzae C.L. As to conditions: agar dilution.
The test system of experiment [12] is Staphylococcus aureus V41. As to conditions: agar dilution.
The test system of experiment [13] is Staphylococcus aureus X400. As to conditions: agar dilution.
Experiment [14] deals with Staphylococcus aureus NRRL B313. As to conditions: agar dilution.
In experiment [15] the test system is Streptococcus pyogenes C203. As to conditions: agar dilution.

Values after ≈ are worked out from the molar mass of the structure shown.

Take `CN[C@H](CC(C)C)C(=O)N[C@H]1C(=O)N[C@@H](CC(N)=O)C(=O)N[C@H]2C(=O)N[C@H]3C(=O)N[C@H](C(=O)N[C@H](C(=O)O)c4cc(O)cc(O)c4-c4cc3ccc4O)[C@H](O)c3ccc(c(Cl)c3)Oc3cc2cc(c3O[C@@H]2O[C@H](CO)[C@@H](O)[C@H](O)[C@H]2O[C@H]2C[C@](C)(N)[C@H](O)[C@H](C)O2)Oc2ccc(cc2Cl)[C@H]1O` [vancomycin, reference compound]: the ED50 is on record as 0.90-0.93 mg/kg/2 in the experiment on Streptococcus pneumoniae, 1.8-3.7 mg/kg/2 in the experiment on Staphylococcus aureus and 0.99-1.1 mg/kg/2 in the experiment with Streptococcus pyogenes.
`CNC(CC(C)C)C(=O)NC1C(=O)NC(CC(N)=O)C(=O)NC2C(=O)NC3C(=O)NC(C(=O)NC(C(=O)O)c4cc(O)cc(O)c4-c4cc3ccc4O)C(O)c3ccc(c(Cl)c3)Oc3cc2cc(c3OC2OC(CO)C(O)C(O)C2OC2CC(C)(NC(=O)C(NC(=O)OCc3ccccc3)C(C)C)C(O)C(C)O2)Oc2ccc(cc2Cl)C1O` (stereo not drawn) [Compound 32, N^van-[2-(N--Cbz--amino)-1-oxo-isopentyl]vancomycin]: the MIC entry against Escherichia coli TEM is “-- (not active at 128 mcg/ml)”; in experiment [1], “-- (not active at 128 mcg/ml)”; in [2], 4 µg/mL (≈ 2.38 µM); in the experiment with Escherichia coli N10 it was “-- (not active at 128 mcg/ml)”; in [3] it was 2 µg/mL (≈ 1.19 µM); in experiment [4] it was 4 µg/mL (≈ 2.38 µM). Moreover, the MIC is 32 µg/mL (≈ 19 µM) in [5]; 8 µg/mL (≈ 4.75 µM) in [6]; “-- (not active at 128 mcg/ml)” in experiment [7]; “-- (not active at 128 mcg/ml)” in the experiment on Escherichia coli EC14; 8 µg/mL (≈ 4.75 µM) in experiment [8]; 128 µg/mL (≈ 76.1 µM) in experiment [9]. Further, the MIC entry is “-- (not active at 128 mcg/ml)” in [10]; 128 µg/mL (≈ 76.1 µM) in [11]; 4 µg/mL (≈ 2.38 µM) in [12]; 8 µg/mL (≈ 4.75 µM) in experiment [13]; 4 µg/mL (≈ 2.38 µM) in [14]; 2 µg/mL (≈ 1.19 µM) in [15].
With `CNC(CC(C)C)C(=O)NC1C(=O)NC(CC(N)=O)C(=O)NC2C(=O)NC3C(=O)NC(C(=O)NC(C(=O)O)c4cc(O)cc(O)c4-c4cc3ccc4O)C(O)c3ccc(c(Cl)c3)Oc3cc2cc(c3OC2OC(CO)C(O)C(O)C2OC2CC(C)(NC(=O)CCC(C)=O)C(O)C(C)O2)Oc2ccc(cc2Cl)C1O` (stereo not drawn) [Compound 36, N^van --(3-acetyl-1-oxo-n-propyl)vancomycin], the MIC entry was “-- (not active at 128 mcg/ml)” with Escherichia coli TEM; “-- (not active at 128 mcg/ml)” in experiment [1]; 4 µg/mL (≈ 2.59 µM) in experiment [2]; “-- (not active at 128 mcg/ml)” in the experiment on Escherichia coli N10; 1 µg/mL (≈ 0.646 µM) in experiment [3]; 4 µg/mL (≈ 2.59 µM) in experiment [4]. For the same compound, the MIC in [5] was 16 µg/mL (≈ 10.3 µM); in experiment [6], 8 µg/mL (≈ 5.17 µM); in [7], “-- (not active at 128 mcg/ml)”; in the experiment with Escherichia coli EC14, “-- (not active at 128 mcg/ml)”; in [8] it was 4 µg/mL (≈ 2.59 µM); in [9], “-- (not active at 128 mcg/ml)”. Moreover, the MIC entry in [10] is “-- (not active at 128 mcg/ml)”; in experiment [11], “-- (not active at 128 mcg/ml)”; in [12], 2 µg/mL (≈ 1.29 µM); in [13], 2 µg/mL (≈ 1.29 µM); in experiment [14] it was 2 µg/mL (≈ 1.29 µM); in [15], 1 µg/mL (≈ 0.646 µM).
Take `CNC(CC(C)C)C(=O)NC1C(=O)NC(CC(N)=O)C(=O)NC2C(=O)NC3C(=O)NC(C(=O)NC(C(=O)O)c4cc(O)cc(O)c4-c4cc3ccc4O)C(O)c3ccc(c(Cl)c3)Oc3cc2cc(c3OC2OC(CO)C(O)C(O)C2OC2CC(C)(NC(=O)CC(C)C)C(O)C(C)O2)Oc2ccc(cc2Cl)C1O` (stereo not drawn) [Compound 34, N^van --(1-oxo-isopentyl)vancomycin]: the MIC entry in the experiment with Escherichia coli TEM is “-- (not active at 128 mcg/ml)”; in experiment [1] it was “-- (not active at 128 mcg/ml)”; in experiment [2] it was 2 µg/mL (≈ 1.3 µM); against Escherichia coli N10, “-- (not active at 128 mcg/ml)”; in [3], 1 µg/mL (≈ 0.652 µM); in experiment [4] it was 2 µg/mL (≈ 1.3 µM). Moreover, the MIC is 8 µg/mL (≈ 5.22 µM) in experiment [5]; 8 µg/mL (≈ 5.22 µM) in experiment [6]; “-- (not active at 128 mcg/ml)” in [7]; “-- (not active at 128 mcg/ml)” against Escherichia coli EC14; 4 µg/mL (≈ 2.61 µM) in experiment [8]; “-- (not active at 128 mcg/ml)” in experiment [9]. Besides, the MIC entry in [10] was “-- (not active at 128 mcg/ml)”; in [11] it was “-- (not active at 128 mcg/ml)”; in [12] it was 2 µg/mL (≈ 1.3 µM); in experiment [13], 2 µg/mL (≈ 1.3 µM); in [14], 2 µg/mL (≈ 1.3 µM); in experiment [15] it was 1 µg/mL (≈ 0.652 µM).
For the compound `CCCCCCCC(=O)N(C)C(CC(C)C)C(=O)NC1C(=O)NC(CC(N)=O)C(=O)NC2C(=O)NC3C(=O)NC(C(=O)NC(C(=O)O)c4cc(O)cc(O)c4-c4cc3ccc4O)C(O)c3ccc(c(Cl)c3)Oc3cc2cc(c3OC2OC(CO)C(O)C(O)C2OC2CC(C)(N)C(O)C(C)O2)Oc2ccc(cc2Cl)C1O` (stereo not drawn) [Compound 4, N^leu --(1-oxo-n-octyl)vancomycin], the MIC entry in the experiment with Escherichia coli TEM was “-- (not active at 128 mcg/ml)”; in experiment [1] it was “-- (not active at 128 mcg/ml)”; in [2], 8 µg/mL (≈ 5.08 µM); in the experiment with Escherichia coli N10, “-- (not active at 128 mcg/ml)”; in experiment [3], 2 µg/mL (≈ 1.27 µM); in experiment [4], 8 µg/mL (≈ 5.08 µM). In addition, the MIC in experiment [5] was 32 µg/mL (≈ 20.3 µM); in experiment [6] it was 16 µg/mL (≈ 10.2 µM); in experiment [7] it was “-- (not active at 128 mcg/ml)”; in the experiment with Escherichia coli EC14, “-- (not active at 128 mcg/ml)”; in experiment [8], 16 µg/mL (≈ 10.2 µM); in experiment [9], “-- (not active at 128 mcg/ml)”. For the same compound, the MIC result in experiment [10] was “-- (not active at 128 mcg/ml)”; in [11] it was “-- (not active at 128 mcg/ml)”; in experiment [12], 8 µg/mL (≈ 5.08 µM); in [13], 8 µg/mL (≈ 5.08 µM); in [14], 8 µg/mL (≈ 5.08 µM); in experiment [15], 4 µg/mL (≈ 2.54 µM).
On to `CCCCCCCC(=O)NC1(C)CC(OC2C(Oc3c4cc5cc3Oc3ccc(cc3Cl)C(O)C(NC(=O)C(CC(C)C)N(C)C(=O)CCCCCCC)C(=O)NC(CC(N)=O)C(=O)NC5C(=O)NC3C(=O)NC(C(=O)NC(C(=O)O)c5cc(O)cc(O)c5-c5cc3ccc5O)C(O)c3ccc(c(Cl)c3)O4)OC(CO)C(O)C2O)OC(C)C1O` (stereo not drawn) [Compound 5, N^van,N^leu --di(1-oxo-n-octyl)vancomycin], for which the MIC result in the experiment with Escherichia coli TEM is “-- (not active at 128 mcg/ml)”; in experiment [1], “-- (not active at 128 mcg/ml)”; in [2], 32 µg/mL (≈ 18.8 µM); in the experiment with Escherichia coli N10, “-- (not active at 128 mcg/ml)”; in [3], 32 µg/mL (≈ 18.8 µM); in experiment [4], 32 µg/mL (≈ 18.8 µM). Besides, the MIC result in experiment [5] is “-- (not active at 128 mcg/ml)”; in experiment [6], 32 µg/mL (≈ 18.8 µM); in experiment [7], “-- (not active at 128 mcg/ml)”; in the experiment on Escherichia coli EC14 it was “-- (not active at 128 mcg/ml)”; in experiment [8], 64 µg/mL (≈ 37.6 µM); in [9] it was “-- (not active at 128 mcg/ml)”. Moreover, the MIC entry in experiment [10] is “-- (not active at 128 mcg/ml)”; in experiment [11], “-- (not active at 128 mcg/ml)”; in experiment [12], 32 µg/mL (≈ 18.8 µM); in experiment [13], 32 µg/mL (≈ 18.8 µM); in [14] it was 32 µg/mL (≈ 18.8 µM); in [15] it was 32 µg/mL (≈ 18.8 µM).

(Values after patent US4639433A, “Glycopeptide derivatives” (Eli Lilly and Company, priority 1985, dated 1987).)
